# Assay results: patent publication US8003331B2, “Method for identifying target protein of drug and method for screening therapeutic agent for diabetes using the target protein” (Astellas Pharma Inc., priority 2005, dated 2011)
# Assays:
# TNF-α = TNF-α gene expression in HeLa S3 cell (real time PCR, corrected by β-actin); assay type: cell-based, human
# Procedure: The pcDNA-TARDBP or an empty vector (pcDNA3.1) (Invitrogen) was transferred into HeLa S3 cell. Illustratively, the HeLa S3 cell (ATCC) was firstly cultured in a 12 well culture plate until it reached a state of 70% confluent, by adding 1 ml of a minimum essential medium DMEM (Gibco) containing 10% fetal bovine serum (Sigma) to each well of the culture plate. The medium was substituted by 0.5 ml per well of a serum-free medium OPTI MEM I (Invitrogen), and 0.8 μg/well of the pcDNA-TARDBP or pcDNA3.1 was transiently transferred using Lipofect amine 2000 (Invitrogen). After 12 hours of the culturing, this was substituted by 1 ml/well of DMEM containing 10% of fetal bovine serum and further cultured for 12 hours. This was further cultured for 16 hours under a condition of adding or not adding okadaic acid (Wako Pure Chemical Industries) to a final concentration of 50 nM. In this case, […] was added a part of the cells simultaneously with the okadaic acid treatment. The medium was discarded, the cells were washed twice with ice-cooled PBS, and then these cells were frozen and stored at −80° C.
# Total RNA was prepared from each cell frozen in the aforementioned Example 9(2), using a reagent for RNA extraction use (Isogen; Nippon Gene) and in accordance with the instructions attached thereto. The thus prepared each total RNA was then treated with a deoxyribonuclease (Nippon Gene), subjected to phenol/chloroform treatment and ethanol precipitation and dissolved in sterile water. Using 1 μg of this total RNA, its reverse transcription into a single-stranded cDNA was carried out in a system of 20 μl using a kit for reverse transcription reaction use (Advantage™ RT-for-PCR Kit; Clontech).
# Six oligonucleotides (SEQ ID NO:97 to SEQ ID NO:102) were designed and synthesized as primers of PCR for the measurement of gene expression quantity. A combination of SEQ ID NO:97 and SEQ ID NO:98 was used for human β-actin gene, and a combination of SEQ ID NO:99 and SEQ ID NO:100 for human TNF-α gene, and a combination of SEQ ID NO:101 and SEQ ID NO:102 for human TARDBP gene, respectively. […]
# The expression quantities of human TNF-α gene and human TARDBP gene in each sample were corrected by the expression quantity of β-actin gene based on the following equation. [Corrected expression quantity of TNF-α or TARDBP]=[expression quantity of TNF-α or TARDBP gene (raw data)/[expression quantity of β-actin gene (raw data)]
# In comparing the expression quantities of TNF-α and TARDBP genes, relative amounts were calculated by regarding the expression quantity in a cell, into which an empty vector (pcDNA3.1) was transferred and which was treated only with the solvent (DMSO), as 100, with the results sown in FIG. 9 and FIG. 10. […]
# TARDBP = target: T1, TARDBP (Homo sapiens, UniProt Q13148); assay: pull-down with 8 GST fusion chaperone proteins from THP-1 cell extract, negative staining and mass spectrum identification; assay type: binding; settings: 100 μM thalidomide added or not added
# T1 construct: endogenous in cells; host or cells: THP-1
# T1 sequence (Q13148 whole entry, the tested form may be a part): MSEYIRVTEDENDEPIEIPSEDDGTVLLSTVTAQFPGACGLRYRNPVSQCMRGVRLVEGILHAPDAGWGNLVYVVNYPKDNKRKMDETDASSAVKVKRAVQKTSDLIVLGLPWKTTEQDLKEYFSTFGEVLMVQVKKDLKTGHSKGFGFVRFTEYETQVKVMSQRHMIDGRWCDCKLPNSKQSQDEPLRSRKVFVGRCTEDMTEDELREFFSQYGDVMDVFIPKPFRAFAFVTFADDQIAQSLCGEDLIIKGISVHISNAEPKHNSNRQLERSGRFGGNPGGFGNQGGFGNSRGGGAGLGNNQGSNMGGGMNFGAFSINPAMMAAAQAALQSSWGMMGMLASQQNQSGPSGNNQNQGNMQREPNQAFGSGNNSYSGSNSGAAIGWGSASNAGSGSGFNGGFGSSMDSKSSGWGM
# Procedure: Thalidomide has significant drug effects for sleep inducing agents, multiple myeloma, HIV, Hansen's disease and the like, but direct target protein of thalidomide has so far been unclear. Accordingly, an attempt was made to screen a target protein of thalidomide using the method shown in the aforementioned “Example 2(2). A human monocytic cell line THP-1 (ATCC) was cultured and suspended in 60 ml of a minimum essential medium (RPMI 1640, Invitrogen) containing 10% fetal calf serum (FCS) and cultured on a plate of 10 cm in diameter (Asahi Techno Glass) until reached 10^6 cells/ml. The cells were collected by 3 minutes of centrifugation at 1200 rpm, washed once with 10 ml of ice-cooled PBS and then lysed by adding 2.0 ml of the aforementioned buffer A, and the cell extract was collected. […] Under a condition of adding or not adding 100 μM in final concentration of thalidomide ((−)-thalidomide, Sigma), a pull-down test was carried out by mixing this soluble fraction of cell extract with 8 species of GST fusion chaperone proteins purified on the glutathione Sepharose beads (a mixture of GST-HSPA1A, GST-HSPH1, GST-HSPCA, GST-HSPD1, GST-DNAJA1, GST-HSPB1, GST-HSPE1 and GST-HSPA4; respective proteins were mixed in 0.5 μg portions). In this connection, steps and conditions of the pull-down test were the same as the aforementioned Example 2(2). […]
structure (smiles),measurement,setting,value
"O=C1CCC(N2C(=O)c3ccccc3C2=O)C(=O)N1 (single isomer, unassigned; (-)) [thalidomide, (−)-thalidomide]",action to suppress expression of TNF-α,"TNF-α; TARDBP high expression cell (pcDNA-TARDBP HeLa S3), with 50 nM okadaic acid",not observed
same,suppression of expression acceleration of TNF-α by okadaic acid,"TNF-α; control cell (empty vector HeLa S3), thalidomide '100' added with 50 nM okadaic acid, 16 hours",~50%
same,band of about 45 kDa (TARDBP) binding to GST fusion chaperone protein mixture,TARDBP,present only when thalidomide was added
